Data on two compounds can be found in PMC3044687, “The C-Terminal Domain of the Arabinosyltransferase Mycobacterium tuberculosis EmbC Is a Lectin-Like Carbohydrate Binding Module” (PLoS Pathogens, 2011).

Some targets named below: EmbC^CT(W985A) (Mycobacterium tuberculosis, UniProt P9WNL5, W985A); EmbC^CT(W868A) (Mycobacterium tuberculosis, UniProt P9WNL5, W868A); EmbC^CT(H911A) (Mycobacterium tuberculosis, UniProt P9WNL5, H911A); EmbC^CT(N740A) (Mycobacterium tuberculosis, UniProt P9WNL5, N740A).
Common to all, as to format: binding

Consider `CCCCCCCCO[C@H]1O[C@H](CO[C@H]2O[C@H](CO[C@H]3O[C@H](CO[C@H]4O[C@H](CO[C@H]5O[C@H](CO)[C@@H](O)[C@@H]5O)[C@@H](O)[C@@H]4O)[C@@H](O)[C@@H]3O)[C@@H](O)[C@@H]2O)[C@@H](O)[C@@H]1O` [Ara(1→5)4Ara-O-C8, [α-D-Araf-(1→5)]4-α-D-Araf-O-(CH2)7CH3], for which, at EmbC^CT(W985A), the Fmax amounted to 0.164 and the “effect of W985A mutation on ligand binding (in words)” value is “insensitive”. Moreover, the “effect of W868A mutation on ligand binding (in words)” value on EmbC^CT(W868A) is listed as “completely inhibited”.
For `CCCCCCCCO[C@H]1O[C@H](CO[C@H]2O[C@H](CO)[C@@H](O)[C@@H]2O)[C@@H](O)[C@@H]1O` [Ara(1→5)Ara-O-C8, α-D-Araf-(1→5)-α-D-Araf-O-(CH2)7CH3], the Fmax is reported as 0.170 at EmbC^CT(H911A), 0.162 at EmbC^CT(W868A) and 0.141 at EmbC^CT(N740A). The “effect of W985A mutation on ligand binding (in words)” value on EmbC^CT(W985A) is on record as “virtually abrogated binding”. Further, the “effect of W868A mutation on ligand binding (in words)” value on EmbC^CT(W868A) is recorded as “preserved binding”.
